Consider eleven molecules from patent US6245817A, “NPY5 receptor antagonists and methods for using same” (Bayer Corporation, priority 1999, dated 2001).

The target in assay [1] is T1, Human NPY1 Receptor (Homo sapiens, UniProt P25929).
T1 sequence (P25929 1-384): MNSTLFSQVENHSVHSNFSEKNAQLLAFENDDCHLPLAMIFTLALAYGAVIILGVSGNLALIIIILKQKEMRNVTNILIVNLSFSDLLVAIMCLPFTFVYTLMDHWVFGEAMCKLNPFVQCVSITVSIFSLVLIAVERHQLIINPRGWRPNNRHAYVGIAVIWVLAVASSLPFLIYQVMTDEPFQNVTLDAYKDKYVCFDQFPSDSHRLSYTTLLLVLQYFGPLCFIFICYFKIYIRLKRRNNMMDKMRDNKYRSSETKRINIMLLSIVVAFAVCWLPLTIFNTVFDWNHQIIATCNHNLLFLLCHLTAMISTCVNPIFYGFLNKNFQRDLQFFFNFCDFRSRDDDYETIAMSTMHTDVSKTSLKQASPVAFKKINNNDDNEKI
As to the kind of experiment: Human NPY1 Receptor Binding Assay. The settings on record: SK-N-MC cells, [125I]PYY; read-out: hNPY1 IC50.

Assay [2] concerns the target Human NPY4/PP1 receptor (Homo sapiens, UniProt P50391). Kind of assay: Human NPY4/PP1 Receptor Binding Assay. The settings on record: [125I]human PP; read-out: hNPY4 IC50.
Assay [3] concerns the target T2, Human NPY5 Receptor (Homo sapiens, UniProt Q15761).
T2 sequence (Q15761 1-445): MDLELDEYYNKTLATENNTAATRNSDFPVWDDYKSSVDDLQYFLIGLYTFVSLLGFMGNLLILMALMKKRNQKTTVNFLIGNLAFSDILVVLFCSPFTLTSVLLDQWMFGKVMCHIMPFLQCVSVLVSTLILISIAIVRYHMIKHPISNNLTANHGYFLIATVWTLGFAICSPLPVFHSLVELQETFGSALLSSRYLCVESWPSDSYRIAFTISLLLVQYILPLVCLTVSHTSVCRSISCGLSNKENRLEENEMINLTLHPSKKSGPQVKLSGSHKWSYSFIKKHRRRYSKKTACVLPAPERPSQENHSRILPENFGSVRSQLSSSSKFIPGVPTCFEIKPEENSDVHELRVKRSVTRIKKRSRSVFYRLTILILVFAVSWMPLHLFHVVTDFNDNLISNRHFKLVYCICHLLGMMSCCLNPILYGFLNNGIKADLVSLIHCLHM
As to the kind of experiment: Human NPY5 Receptor Binding Assay. The settings on record: [125I]PYY; read-out: hNPY5 IC50.

Assay [4] has as its target T3, Rat NPY5 Receptor (Rattus norvegicus, UniProt Q63634).
T3 sequence (Q63634 1-445): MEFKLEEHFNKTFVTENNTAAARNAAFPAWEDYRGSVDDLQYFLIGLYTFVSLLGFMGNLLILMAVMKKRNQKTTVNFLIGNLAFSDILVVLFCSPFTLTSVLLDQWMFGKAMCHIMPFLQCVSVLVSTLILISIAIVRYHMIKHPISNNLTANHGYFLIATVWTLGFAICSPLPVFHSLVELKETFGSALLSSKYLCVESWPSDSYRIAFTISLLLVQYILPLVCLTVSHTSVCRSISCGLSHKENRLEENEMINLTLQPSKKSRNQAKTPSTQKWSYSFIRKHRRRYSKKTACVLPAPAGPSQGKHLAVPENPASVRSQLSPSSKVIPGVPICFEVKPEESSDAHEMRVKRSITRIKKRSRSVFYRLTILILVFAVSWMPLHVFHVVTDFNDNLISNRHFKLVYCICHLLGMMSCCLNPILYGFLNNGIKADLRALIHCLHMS
As to the kind of experiment: Rat NPY5 Receptor Binding Assay. The settings on record: [125I]PYY; read-out: rNPY5 IC50.

For assay [5], the target named is T4, Human NPY2 receptor (Homo sapiens, UniProt P49146).
T4 sequence (P49146 1-381): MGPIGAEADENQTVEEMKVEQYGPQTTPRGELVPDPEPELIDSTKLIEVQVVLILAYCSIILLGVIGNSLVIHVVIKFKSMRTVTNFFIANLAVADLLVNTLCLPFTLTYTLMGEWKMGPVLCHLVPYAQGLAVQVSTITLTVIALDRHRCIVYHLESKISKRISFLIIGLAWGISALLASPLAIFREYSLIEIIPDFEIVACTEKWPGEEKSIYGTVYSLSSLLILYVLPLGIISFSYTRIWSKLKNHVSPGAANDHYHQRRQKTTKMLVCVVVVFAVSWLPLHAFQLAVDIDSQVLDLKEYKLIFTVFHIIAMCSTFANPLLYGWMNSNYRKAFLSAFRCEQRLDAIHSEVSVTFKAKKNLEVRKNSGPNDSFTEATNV
As to the kind of experiment: Human NPY2 Receptor Binding Assay. As to conditions: [125I]PYY; read-out: hPPY2 IC50.
Method: Binding assays were performed on GF/C Millipore 96-well plates pretreated with 0.02% polyethylenimine. The binding buffer for rat Y2 binding is Krebs-Ringer bicarbonate (pH 7.4) containing 0.01% BSA and 0.005% bacitracin. Samples consist of membrane protein, 25 pM [125I]PYY and drug dilution. Nonspecific binding is defined by 1 μpM NPY.
After a 2 hour incubation at room temperature with constant mixing, the samples are aspirated on a vacuum manifold, and rinsed with ice-cold binding buffer. The amount of radioactivity in each well is quantitated with either gamma counting or liquid scintillation.

SMILES strings stand for the structures. Where a name gives a salt, the structure may show the parent alone.

As a reminder, the IC50 is the concentration needed to halve the response being measured.

Sequence of Human NPY4/PP1 receptor (P50391 whole entry): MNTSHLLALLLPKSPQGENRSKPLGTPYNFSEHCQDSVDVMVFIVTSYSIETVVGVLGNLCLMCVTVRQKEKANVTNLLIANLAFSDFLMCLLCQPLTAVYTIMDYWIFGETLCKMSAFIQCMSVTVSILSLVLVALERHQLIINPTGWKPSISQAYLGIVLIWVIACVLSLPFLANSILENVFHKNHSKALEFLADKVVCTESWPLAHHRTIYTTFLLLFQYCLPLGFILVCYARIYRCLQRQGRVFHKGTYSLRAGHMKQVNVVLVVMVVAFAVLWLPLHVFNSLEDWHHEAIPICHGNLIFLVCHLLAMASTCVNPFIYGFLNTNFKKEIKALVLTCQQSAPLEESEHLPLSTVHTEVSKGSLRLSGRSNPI

`Cn1c(SCC(=O)Nc2ccc(Cl)cc2)nnc1-c1ncc(C(F)(F)F)cc1Cl` [Compound 160, reference compound]: the IC50 in assay [1] is greater than 5 µM; in assay [2], greater than 5 µM; in assay [3] it was greater than 10 µM; in assay [4], greater than 10 µM.

For `COC(Cn1c(SCC(=O)Nc2ccc(C(C)C)cc2)nnc1-c1ccc(Cl)cc1)OC` [Compound 166, 2-[5-(4-Chloro-phenyl)-4-(2,2-dimethoxy-ethyl)-4H-[1,2,4]triazol-3-ylsulfanyl]-N-(4-isopropyl-phenyl)-acetamide, reference compound], the IC50 in assay [1] is greater than 5 µM; in assay [2], greater than 5 µM; in assay [3] it was greater than 10 µM; in assay [4], greater than 10 µM.

For `COC(Cn1c(SCC(=O)Nc2ccc(C(C)C)cc2)nnc1-c1ccccc1)OC` [Compound 163, 2-[4-(2,2-Dimethoxy-ethyl)-5-phenyl-4H-[1,2,4]triazol-3-ylsulfanyl]-N-(4-isopmpyl-phenyl)-acetamide, reference compound], the IC50 was greater than 5 µM in assay [1], greater than 5 µM in assay [2], greater than 10 µM in assay [3] and greater than 10 µM in assay [4].

As to `Cc1cc(-c2nc(C)c(-c3nnc(SCC(=O)Nc4ccc(Cl)cc4)n3C)s2)no1` [Compound 169, reference compound], the IC50 in assay [1] was greater than 5 µM; in assay [2], greater than 5 µM; in assay [3], greater than 10 µM; in assay [4] it was greater than 10 µM.

Turning to `CCC(C)c1ccc(NC(=O)CSc2nnnn2C)cc1` (centres unmarked) [Compound 171, N-(4-sec-Butyl-phenyl)-2-(1-methyl-1H-tetrazol-5-ylsulfanyl)-acetamide, reference compound], the IC50 in assay [1] is greater than 5 µM; in assay [2], greater than 5 µM; in assay [3], 0.553 µM; in assay [4], 0.525 µM.

Take `CCC(C)c1ccc(NC(=O)CSc2nncn2C)cc1` (centres unmarked) [Compound 172, reference compound]: the IC50 in assay [1] was greater than 5 µM; in assay [2] it was greater than 5 µM; in assay [3], 2.3 µM; in assay [4] it was 2 µM.

Take `COC(Cn1c(SCC(=O)Nc2ccc(Cl)cc2)nnc1-c1ccccc1)OC` [Compound 162, N-(4-Chloro-phenyl)-2-(4-(2,2-dimethoxy-ethyl)-5-phenyl-4H-[1,2,4]triazol-3-ylsulfanyl]-acetamide, reference compound]: the IC50 in assay [1] is greater than 5 µM; in assay [2], greater than 5 µM; in assay [3], greater than 10 µM; in assay [4], greater than 10 µM.

On to `Cc1cc(-c2nc(C)c(-c3nnc(SCC(=O)Nc4ccc(C(C)C)cc4)n3C)s2)no1` [Compound 177, N-(4-isopropyl-phenyl)-2-(4-methyl-5-[4-methyl-2-(5-methyl-isoxazol-3-yl)-thiazol-5-yl]-4H-[1,2,4]-triazol-3-ylsulfanyl]-acetamide, reference compound], for which the IC50 in assay [5] is greater than 5 µM; in assay [2] it was greater than 5 µM; in assay [3], greater than 10 µM.

Take `CCCCCCCCCCCc1nnc(SCC(=O)Nc2ccc(C(C)C)cc2)n1-c1ccccc1C(F)(F)F` [Compound 179, reference compound]: the IC50 in assay [5] was greater than 5 µM; in assay [2] it was greater than 5 µM; in assay [3], greater than 10 µM.

In the case of `Cc1ccnc(SCC(=O)Nc2ccc(C3CCCCC3)cc2)n1` [Compound 5, N-(4-Cyclohexyl-phenyl)-2-(4-methyl-pyrimidin-2-ylsultanyl)-acetamide Hydrochloride], the figures for the IC50 in assay [5], in assay [2] and in assay [4] were greater than 5 µM, greater than 5 µM and greater than 1 µM, respectively.

With `Cc1ccc(SCC(=O)Nc2ccc(C3CCCCC3)cc2)cc1` [Compound 183, reference compound], the IC50 in assay [5] is greater than 5 µM; in assay [2], greater than 5 µM; in assay [3], 1.3 µM; in assay [4], 1.2 µM.
